Assay results taken from US12685719B2, “Treatment of breast cancer with selective androgen receptor modulators and cyclin-dependent kinase 4/6 inhibitors” (UNIVERSITY OF TENNESSEE RESEARCH FOUNDATION, priority 2012, dated 2026).

Experiments:
Type in all cases: cell-based
ER-β = target: T1, ER-β (Rattus norvegicus, UniProt Q62986); test: Transcriptional activation (luciferase) in HEK-293 cells, ER-β; design: activation of ER-β: dose or concentration left out as unconfirmed
T1 construct: expressed in transfected cells
T1 sequence (Q62986 whole entry): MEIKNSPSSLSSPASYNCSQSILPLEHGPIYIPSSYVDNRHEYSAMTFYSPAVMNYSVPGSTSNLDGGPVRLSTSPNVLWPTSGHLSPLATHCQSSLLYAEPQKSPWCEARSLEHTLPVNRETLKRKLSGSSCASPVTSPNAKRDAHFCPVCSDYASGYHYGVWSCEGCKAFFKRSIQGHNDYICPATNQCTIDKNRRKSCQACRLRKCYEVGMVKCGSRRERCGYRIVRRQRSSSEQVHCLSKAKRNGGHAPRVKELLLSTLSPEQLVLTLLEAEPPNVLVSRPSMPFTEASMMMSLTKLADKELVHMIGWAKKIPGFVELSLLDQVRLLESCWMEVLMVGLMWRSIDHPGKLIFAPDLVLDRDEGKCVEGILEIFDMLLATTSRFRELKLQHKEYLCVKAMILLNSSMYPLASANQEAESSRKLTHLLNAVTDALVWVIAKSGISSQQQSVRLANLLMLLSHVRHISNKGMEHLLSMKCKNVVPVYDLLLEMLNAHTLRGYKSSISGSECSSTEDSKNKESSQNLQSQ
Description: Rat GR, MR, PR, ER-α and ER-β were individually cloned into a pCR3.1 vector backbone. Sequencing was performed to verify the absence of any mutations. HEK-293 cells were plated at 90,000 cells per well of a 24 well plate in Dulbecco's Minimal Essential Media supplemented with 5% charcoal-stripped FBS. The cells were transfected using Lipofectamine (Invitrogen, Carlsbad, CA) with […] GRE-LUC for GR, MR and PR and ERE-LUC for ER-α and ER-β, 0.5 ng CMV-LUC (Renilla luciferase) and 12.5-25 ng of the respective expression vector for each receptor. […] Luciferase assays were performed 48 h after transfection. Transcriptional activation values are represented as firefly luciferase normalized to Renilla luciferase.

AR = target: T2, AR (Homo sapiens, UniProt P10275); test: AR transactivation (GRE-LUC luciferase) in MDA-MB-231 cells; conditions: cells transfected with AR and GRE-LUC
T2 construct: expressed in transfected cells; host or cells: MDA-MB-231
T2 sequence (P10275 whole entry): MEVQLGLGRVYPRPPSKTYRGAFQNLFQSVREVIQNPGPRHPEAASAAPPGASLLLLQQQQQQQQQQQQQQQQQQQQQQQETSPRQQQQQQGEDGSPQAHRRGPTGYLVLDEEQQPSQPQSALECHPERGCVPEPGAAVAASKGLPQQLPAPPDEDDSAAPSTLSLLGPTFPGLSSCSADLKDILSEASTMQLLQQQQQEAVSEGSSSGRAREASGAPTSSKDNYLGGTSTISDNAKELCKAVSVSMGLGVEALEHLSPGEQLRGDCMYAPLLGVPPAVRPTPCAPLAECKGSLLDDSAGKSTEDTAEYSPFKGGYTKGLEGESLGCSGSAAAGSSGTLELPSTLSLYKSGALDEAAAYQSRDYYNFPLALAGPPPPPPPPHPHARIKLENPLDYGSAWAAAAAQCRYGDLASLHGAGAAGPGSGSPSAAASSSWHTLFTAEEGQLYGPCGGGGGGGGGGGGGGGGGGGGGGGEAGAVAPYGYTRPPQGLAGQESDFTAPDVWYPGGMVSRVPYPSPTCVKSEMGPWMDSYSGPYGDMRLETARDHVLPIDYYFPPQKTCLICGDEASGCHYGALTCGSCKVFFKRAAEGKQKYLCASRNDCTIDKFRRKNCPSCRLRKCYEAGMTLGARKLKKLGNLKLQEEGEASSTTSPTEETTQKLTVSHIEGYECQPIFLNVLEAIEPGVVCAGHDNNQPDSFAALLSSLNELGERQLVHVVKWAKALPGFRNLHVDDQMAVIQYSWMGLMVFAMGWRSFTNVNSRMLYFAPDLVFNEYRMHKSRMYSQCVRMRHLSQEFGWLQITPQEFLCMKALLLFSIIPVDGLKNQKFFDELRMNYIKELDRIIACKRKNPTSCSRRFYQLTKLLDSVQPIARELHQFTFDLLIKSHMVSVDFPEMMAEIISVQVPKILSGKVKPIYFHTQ
Description: Though AR transactivation assay was performed in HEK-293 cells, the ability of ligands to function as agonists or antagonists depends on cellular microenvironment. […] The cells were treated 24 h after transfection and luciferase assay performed 48 h after transfection.

MR = target: T3, MR (Rattus norvegicus, UniProt P22199); test: Transcriptional activation (luciferase) in HEK-293 cells, MR
T3 construct: expressed in transfected cells
T3 sequence (P22199 1-981): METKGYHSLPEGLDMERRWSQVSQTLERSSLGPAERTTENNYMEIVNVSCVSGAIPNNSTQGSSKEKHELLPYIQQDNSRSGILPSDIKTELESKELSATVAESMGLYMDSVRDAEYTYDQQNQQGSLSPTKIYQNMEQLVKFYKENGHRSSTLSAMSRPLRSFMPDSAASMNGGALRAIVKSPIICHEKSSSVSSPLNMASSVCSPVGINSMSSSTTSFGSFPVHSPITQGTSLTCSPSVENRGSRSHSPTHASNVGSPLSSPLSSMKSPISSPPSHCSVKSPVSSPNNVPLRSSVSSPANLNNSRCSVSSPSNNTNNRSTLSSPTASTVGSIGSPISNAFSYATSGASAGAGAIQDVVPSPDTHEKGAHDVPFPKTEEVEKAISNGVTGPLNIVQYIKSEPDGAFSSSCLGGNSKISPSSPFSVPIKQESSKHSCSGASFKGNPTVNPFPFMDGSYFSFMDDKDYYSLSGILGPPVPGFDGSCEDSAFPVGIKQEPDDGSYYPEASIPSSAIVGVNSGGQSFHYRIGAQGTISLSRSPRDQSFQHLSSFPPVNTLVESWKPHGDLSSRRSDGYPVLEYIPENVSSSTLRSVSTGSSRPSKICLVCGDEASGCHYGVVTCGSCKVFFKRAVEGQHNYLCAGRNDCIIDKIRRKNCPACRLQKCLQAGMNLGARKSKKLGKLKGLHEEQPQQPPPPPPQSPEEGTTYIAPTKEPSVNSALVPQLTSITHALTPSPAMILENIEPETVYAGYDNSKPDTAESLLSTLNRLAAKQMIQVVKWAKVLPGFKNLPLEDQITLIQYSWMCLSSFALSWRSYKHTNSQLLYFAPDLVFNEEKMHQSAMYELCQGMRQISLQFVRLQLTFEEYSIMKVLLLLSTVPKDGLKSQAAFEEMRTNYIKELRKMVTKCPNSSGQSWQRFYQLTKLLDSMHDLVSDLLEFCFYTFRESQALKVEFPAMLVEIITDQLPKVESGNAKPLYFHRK
Description: (§1) Rat GR, MR, PR, ER-α and ER-β were individually cloned into a pCR3.1 vector backbone. Sequencing was performed to verify the absence of any mutations. HEK-293 cells were plated at 90,000 cells per well of a 24 well plate in Dulbecco's Minimal Essential Media supplemented with 5% charcoal-stripped FBS. […] Luciferase assays were performed 48 h after transfection. Transcriptional activation values are represented as firefly luciferase normalized to Renilla luciferase.

ER-α = target: T4, ER-α (Rattus norvegicus, UniProt P06211); test: Transcriptional activation (luciferase) in HEK-293 cells, ER-α; design: activation of ER-α: dose or concentration left out as unconfirmed
T4 construct: expressed in transfected cells
T4 sequence (P06211 1-600): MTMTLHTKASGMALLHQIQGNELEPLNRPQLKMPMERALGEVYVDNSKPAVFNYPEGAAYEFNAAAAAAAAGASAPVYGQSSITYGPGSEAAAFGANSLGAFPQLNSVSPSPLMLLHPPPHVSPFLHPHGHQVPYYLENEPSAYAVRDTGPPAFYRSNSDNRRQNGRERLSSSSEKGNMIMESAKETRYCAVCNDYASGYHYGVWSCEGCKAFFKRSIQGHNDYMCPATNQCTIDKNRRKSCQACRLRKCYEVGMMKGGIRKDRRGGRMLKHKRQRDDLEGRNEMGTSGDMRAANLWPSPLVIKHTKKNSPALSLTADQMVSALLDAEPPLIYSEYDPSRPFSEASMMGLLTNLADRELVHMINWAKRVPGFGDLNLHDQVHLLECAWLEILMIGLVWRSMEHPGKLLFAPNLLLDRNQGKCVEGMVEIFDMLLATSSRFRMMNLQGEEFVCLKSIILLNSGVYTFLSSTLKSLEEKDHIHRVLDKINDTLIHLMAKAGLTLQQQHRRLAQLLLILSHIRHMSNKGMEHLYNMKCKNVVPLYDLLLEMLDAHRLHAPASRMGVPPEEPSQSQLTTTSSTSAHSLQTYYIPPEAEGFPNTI
Description: as §1

[1] = agonist mode, highest tested concentration

Row | Compound | receptor-mediated transactivation of ERβ (stimulate or inhibit) (ER-β) | AR agonist activity (transactivation) (AR) | receptor-mediated transactivation of MR (stimulate or inhibit) (MR) | receptor-mediated transactivation of ERα (stimulate or inhibit) (ER-α) | activation of ER-β (ER-β; [1]) | 17β-estradiol-induced ER-β activity (ER-β; antagonist mode) | MR-mediated transactivation (MR; agonist mode, all the tested concentrations) | aldosterone-induced MR-mediated transactivation (MR; antagonist mode) | activation of ER-α (ER-α; [1]) | 17β-estradiol-induced ER-α activity (ER-α; antagonist mode)
1 | C[C@](O)(COc1ccc(C#N)cc1)C(=O)Nc1ccc(C#N)c(C(F)(F)F)c1 [Formula IX, (S)-N-(4-Cyano-3-(trifluoromethyl)phenyl)-3-(4-cyanophenoxy)-2-hydroxy-2-methylpropanamide] | do not stimulate or inhibit | agonists of AR | do not stimulate or inhibit | do not stimulate or inhibit | – | – | – | – | – | –
2 | C[C@](O)(COc1ccc(C#N)cc1)C(=O)Nc1ccc(C#N)c(Cl)c1 [Formula VIII, (S)-N-(3-chloro-4-cyanophenyl)-3-(4-cyanophenoxy)-2-hydroxy-2-methylpropanamide] | do not stimulate or inhibit | agonists of AR | do not stimulate or inhibit | do not stimulate or inhibit | failed to activate | failed to alter | did not induce | failed to alter | failed to activate | failed to alter
